# In paper PMC12802110, “Biochemical characterization of the full-length isoform of soluble adenylyl cyclase” (The Journal of Biological Chemistry, 2025):
# Where two headings read alike, the source gives them in different places.
# How the values were obtained:
# [1] = system: mouse and human sACfl and sACt; assay: In vitro adenylyl cyclase activity assay, one result stated for all four sAC proteins; type: biochemical; details: for inhibition of cyclase activity at 10 mM: 10 mM test substance
# human sACt = biological target: T1, human sACt (Homo sapiens, UniProt Q96PN6); assay: In vitro adenylyl cyclase activity assay (two-column method), heterologously expressed human sACt (GST); type: biochemical; details: for EC50: 2 mM ATP
# T1 construct: sACt contains only the C1 and C2 catalytic domains; GST; made in house
# T1 sequence (Q96PN6 1-469 limits assumed): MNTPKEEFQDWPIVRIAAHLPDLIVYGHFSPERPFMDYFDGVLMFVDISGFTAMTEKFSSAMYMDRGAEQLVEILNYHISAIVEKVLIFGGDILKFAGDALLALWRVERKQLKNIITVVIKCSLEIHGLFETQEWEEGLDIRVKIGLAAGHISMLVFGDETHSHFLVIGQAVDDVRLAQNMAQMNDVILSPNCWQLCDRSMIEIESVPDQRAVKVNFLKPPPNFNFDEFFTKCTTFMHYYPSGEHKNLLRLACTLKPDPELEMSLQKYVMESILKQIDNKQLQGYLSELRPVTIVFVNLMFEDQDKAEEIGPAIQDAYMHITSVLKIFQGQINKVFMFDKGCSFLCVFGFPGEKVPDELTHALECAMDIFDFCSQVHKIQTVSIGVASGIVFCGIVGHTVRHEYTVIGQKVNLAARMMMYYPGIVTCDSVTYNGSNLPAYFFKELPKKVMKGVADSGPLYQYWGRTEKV
# mouse sACfl = biological target: T2, mouse sACfl (Mus musculus, UniProt Q8C0T9); assay: In vitro adenylyl cyclase activity assay (two-column method), endogenous mouse sACfl (FLAG); type: biochemical; details: for EC50: 2 mM ATP
# T2 construct: Schematic of full-length (sACfl) and truncated (sACt) sAC isoforms; from tissue; host or cells: testes of homozygous double knock-in mice (FLAG pulldown, eluted with 3xFLAG peptide)
# Text: (§1) […]. To determine specific activities of endogenous mouse proteins, sACfl and sACt were quantitated by Western blot. For ATP kinetics, representative experiments are shown with SEM determined from normalized data.
# human sACfl = biological target: T3, human sACfl (Homo sapiens, UniProt Q96PN6); assay: In vitro adenylyl cyclase activity assay (two-column method), heterologously expressed human sACfl (GFP nanobody purified, complexed with Hsp70); type: biochemical; details: for EC50: 2 mM ATP
# T3 construct: Schematic of full-length (sACfl) and truncated (sACt) sAC isoforms; eGFP (C, cleaved yes); His-tag (on eGFP) (C, cleaved yes); PreScission protease site (C); made in house; host or cells: Expi293 cells
# mouse sACt = biological target: T4, mouse sACt (Mus musculus, UniProt Q8C0T9); assay: In vitro adenylyl cyclase activity assay (two-column method), endogenous mouse sACt (Strep); type: biochemical; details: for EC50: 2 mM ATP
# T4 construct: from tissue; host or cells: testes of homozygous double knock-in mice (Strep pulldown after FLAG depletion, eluted with biotin)
# T4 sequence (Q8C0T9 1-471 isoform Q8C0T9-2): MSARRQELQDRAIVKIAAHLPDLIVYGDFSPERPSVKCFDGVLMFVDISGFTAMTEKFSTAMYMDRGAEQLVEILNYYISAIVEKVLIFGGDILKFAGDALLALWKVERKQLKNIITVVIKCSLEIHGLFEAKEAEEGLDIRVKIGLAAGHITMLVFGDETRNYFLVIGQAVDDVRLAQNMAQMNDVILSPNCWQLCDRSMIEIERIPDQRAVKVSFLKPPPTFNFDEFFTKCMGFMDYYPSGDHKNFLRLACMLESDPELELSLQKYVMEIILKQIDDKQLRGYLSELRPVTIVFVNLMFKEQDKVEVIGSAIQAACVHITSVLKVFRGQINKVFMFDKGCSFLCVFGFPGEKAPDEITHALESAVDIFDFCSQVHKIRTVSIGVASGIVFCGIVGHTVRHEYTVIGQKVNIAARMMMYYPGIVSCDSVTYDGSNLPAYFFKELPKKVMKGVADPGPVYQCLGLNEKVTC
# Text: as §1
# sAC = system: sAC; parameters: method as in PMID 24100033; details: read-out: KM of sAC's substrate ATP; cited from earlier work
# [2] = biological target: T5, mouse sAC isoforms (sACfl and sACt) (Mus musculus, UniProt Q8C0T9); assay: In vitro adenylyl cyclase activity assay, one result stated for both mouse sAC isoforms; details: read-out: IC50, mouse sAC; text summary (Fig. 5)
# T5 sequence (Q8C0T9 1-469 limits assumed): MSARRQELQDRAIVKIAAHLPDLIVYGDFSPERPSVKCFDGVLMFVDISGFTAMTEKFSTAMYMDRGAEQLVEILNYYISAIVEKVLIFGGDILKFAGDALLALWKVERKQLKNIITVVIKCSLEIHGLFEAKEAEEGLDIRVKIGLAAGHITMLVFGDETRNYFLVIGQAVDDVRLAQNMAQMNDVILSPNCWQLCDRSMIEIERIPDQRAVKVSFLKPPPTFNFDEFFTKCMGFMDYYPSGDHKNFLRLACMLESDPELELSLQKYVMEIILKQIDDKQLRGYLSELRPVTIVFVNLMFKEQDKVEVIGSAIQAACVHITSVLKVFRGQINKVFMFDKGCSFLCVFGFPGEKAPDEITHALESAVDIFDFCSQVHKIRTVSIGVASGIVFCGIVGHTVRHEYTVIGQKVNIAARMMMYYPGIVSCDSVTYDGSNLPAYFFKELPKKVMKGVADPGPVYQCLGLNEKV
# [3] = 2 mM ATP, 10 mM MgCl2, 10 mM CaCl2, 40 mM NaHCO3
# [4] = 10 mM MgCl2, 10 mM CaCl2, read-out: EC50 for HCO3^-
# [5] = in the presence of Mg^2+, Ca^2+ and HCO3^- (20-40 mM MgCl2, 10 mM CaCl2, 40 mM NaHCO3), read-out: KM for substrate Mg^2+-ATP
# [6] = 10 mM MgCl2, 40 mM NaHCO3, read-out: EC50 for Ca^2+
# [7] = 10 mM MgCl2, 10 mM CaCl2, 40 mM NaHCO3
# T3 sequence (Q96PN6 whole entry, the tested form may be a part, canonical isoform): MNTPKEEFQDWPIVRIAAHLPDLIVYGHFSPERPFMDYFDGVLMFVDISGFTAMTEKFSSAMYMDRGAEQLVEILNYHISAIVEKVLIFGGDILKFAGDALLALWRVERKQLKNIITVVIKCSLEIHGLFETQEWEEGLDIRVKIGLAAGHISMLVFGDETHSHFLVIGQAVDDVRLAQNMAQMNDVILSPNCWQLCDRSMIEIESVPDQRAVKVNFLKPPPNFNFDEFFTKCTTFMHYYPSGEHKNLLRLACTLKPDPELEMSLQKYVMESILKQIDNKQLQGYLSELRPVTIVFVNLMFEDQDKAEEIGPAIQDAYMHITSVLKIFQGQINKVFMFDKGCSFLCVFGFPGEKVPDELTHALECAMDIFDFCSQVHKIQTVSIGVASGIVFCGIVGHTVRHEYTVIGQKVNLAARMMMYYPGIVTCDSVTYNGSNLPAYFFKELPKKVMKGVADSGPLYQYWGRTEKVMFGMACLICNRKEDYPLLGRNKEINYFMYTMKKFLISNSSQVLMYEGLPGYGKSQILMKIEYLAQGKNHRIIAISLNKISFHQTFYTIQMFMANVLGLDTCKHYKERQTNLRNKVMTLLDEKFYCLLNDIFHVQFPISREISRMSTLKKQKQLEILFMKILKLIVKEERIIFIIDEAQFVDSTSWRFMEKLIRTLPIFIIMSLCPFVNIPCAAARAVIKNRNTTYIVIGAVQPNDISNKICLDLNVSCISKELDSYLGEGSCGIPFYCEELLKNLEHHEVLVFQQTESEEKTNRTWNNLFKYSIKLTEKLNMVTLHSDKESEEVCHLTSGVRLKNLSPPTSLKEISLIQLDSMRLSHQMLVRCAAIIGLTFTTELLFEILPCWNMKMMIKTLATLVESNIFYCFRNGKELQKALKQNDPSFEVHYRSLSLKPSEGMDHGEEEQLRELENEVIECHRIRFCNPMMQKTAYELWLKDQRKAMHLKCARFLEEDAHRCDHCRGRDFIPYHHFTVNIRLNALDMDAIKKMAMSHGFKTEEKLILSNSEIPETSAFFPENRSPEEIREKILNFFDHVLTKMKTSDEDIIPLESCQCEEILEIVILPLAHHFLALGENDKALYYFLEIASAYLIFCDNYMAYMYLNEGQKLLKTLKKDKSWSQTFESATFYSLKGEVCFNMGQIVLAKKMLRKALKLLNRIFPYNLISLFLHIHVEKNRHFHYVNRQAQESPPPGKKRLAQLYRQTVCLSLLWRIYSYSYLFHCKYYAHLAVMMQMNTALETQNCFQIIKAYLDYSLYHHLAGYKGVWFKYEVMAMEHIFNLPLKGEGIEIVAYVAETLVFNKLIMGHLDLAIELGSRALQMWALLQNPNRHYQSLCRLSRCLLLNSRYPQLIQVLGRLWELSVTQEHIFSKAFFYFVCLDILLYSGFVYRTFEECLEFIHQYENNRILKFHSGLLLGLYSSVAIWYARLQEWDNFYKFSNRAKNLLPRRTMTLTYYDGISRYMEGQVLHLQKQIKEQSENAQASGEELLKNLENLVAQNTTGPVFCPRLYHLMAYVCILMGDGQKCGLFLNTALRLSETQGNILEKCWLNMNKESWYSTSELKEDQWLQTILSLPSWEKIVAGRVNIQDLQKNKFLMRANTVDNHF
# T3 sequence (P0DMV8 whole entry partner, the tested form may be a part, canonical isoform): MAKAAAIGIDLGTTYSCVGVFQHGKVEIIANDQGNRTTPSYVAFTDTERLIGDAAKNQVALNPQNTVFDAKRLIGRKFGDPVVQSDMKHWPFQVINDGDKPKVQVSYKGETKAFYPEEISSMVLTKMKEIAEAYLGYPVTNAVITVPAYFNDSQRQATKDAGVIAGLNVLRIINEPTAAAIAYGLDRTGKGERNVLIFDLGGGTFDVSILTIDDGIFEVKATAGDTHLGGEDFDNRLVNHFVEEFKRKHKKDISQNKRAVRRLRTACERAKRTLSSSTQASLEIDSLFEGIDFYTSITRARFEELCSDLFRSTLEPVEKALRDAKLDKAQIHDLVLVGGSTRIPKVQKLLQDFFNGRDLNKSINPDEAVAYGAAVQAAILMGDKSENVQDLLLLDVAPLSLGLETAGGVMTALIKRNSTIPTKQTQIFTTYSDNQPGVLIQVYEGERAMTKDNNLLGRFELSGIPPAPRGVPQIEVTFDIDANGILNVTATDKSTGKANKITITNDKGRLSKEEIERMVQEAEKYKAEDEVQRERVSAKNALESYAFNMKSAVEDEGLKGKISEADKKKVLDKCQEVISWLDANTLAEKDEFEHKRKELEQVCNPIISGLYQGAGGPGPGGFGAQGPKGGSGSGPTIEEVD
# T2 sequence (Q8C0T9 whole entry, the tested form may be a part, canonical isoform): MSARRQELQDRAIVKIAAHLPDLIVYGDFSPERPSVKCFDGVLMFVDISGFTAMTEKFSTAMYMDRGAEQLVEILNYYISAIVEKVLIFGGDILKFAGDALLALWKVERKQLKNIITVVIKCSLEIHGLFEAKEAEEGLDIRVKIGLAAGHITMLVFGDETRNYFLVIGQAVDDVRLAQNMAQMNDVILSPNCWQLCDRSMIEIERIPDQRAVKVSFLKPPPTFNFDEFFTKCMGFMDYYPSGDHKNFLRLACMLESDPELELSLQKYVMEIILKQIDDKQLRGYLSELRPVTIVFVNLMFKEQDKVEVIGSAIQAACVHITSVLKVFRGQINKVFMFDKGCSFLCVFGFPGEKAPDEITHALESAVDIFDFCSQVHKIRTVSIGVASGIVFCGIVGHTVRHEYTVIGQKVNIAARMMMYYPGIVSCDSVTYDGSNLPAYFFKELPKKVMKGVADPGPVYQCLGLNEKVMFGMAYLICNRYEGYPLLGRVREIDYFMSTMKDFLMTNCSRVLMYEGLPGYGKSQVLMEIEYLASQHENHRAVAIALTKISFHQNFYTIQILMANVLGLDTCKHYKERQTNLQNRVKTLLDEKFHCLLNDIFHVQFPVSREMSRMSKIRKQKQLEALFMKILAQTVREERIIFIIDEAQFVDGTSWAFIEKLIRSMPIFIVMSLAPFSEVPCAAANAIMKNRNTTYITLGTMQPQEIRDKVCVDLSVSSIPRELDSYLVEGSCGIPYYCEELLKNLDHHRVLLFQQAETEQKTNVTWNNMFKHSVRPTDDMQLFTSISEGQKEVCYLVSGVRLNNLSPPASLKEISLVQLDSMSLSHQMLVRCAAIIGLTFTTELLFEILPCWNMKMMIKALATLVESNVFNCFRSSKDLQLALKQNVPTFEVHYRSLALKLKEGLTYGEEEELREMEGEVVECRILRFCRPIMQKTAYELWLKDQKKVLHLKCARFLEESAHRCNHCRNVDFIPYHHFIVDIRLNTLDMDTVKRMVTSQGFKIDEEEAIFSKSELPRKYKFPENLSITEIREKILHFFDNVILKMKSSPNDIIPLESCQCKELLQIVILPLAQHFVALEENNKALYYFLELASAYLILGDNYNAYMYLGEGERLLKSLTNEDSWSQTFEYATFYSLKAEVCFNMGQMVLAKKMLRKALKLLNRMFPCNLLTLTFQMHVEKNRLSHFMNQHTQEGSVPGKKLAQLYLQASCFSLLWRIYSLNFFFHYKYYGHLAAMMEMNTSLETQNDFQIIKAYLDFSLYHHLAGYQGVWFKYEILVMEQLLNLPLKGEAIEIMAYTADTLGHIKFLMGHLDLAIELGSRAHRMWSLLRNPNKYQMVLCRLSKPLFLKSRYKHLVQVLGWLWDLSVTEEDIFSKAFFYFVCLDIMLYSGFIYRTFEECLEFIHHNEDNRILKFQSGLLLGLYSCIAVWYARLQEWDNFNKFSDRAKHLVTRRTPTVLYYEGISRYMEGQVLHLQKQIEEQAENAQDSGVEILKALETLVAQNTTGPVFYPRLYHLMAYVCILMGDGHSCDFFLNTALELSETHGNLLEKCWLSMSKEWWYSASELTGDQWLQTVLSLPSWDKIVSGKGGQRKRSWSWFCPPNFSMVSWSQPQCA
structure (smiles),measurement,setting,value
Nc1nc2c(ncn2[C@@H]2O[C@H](COP(=O)(O)OP(=O)(O)OP(=O)(O)O)[C@@H](O)[C@H]2O)c(=O)[nH]1 [GTP],inhibition of cyclase activity at 10 mM,[1]; [3],∼50% inhibition at 10 mM
O=C(O)O [HCO3^–],EC50,human sACt; [4],14 ± 1 mM
same,EC50,mouse sACfl; [4],21 ± 1.9 mM
same,EC50,human sACfl; [4],14 ± 1.2 mM
same,EC50,mouse sACt; [4],19 ± 1.6 mM
Cc1cn([C@H]2C[C@H](O)[C@@H](COP(=O)(O)OP(=O)(O)OP(=O)(O)O)O2)c(=O)[nH]c1=O [TTP],inhibition of cyclase activity at 10 mM,[1]; [3],∼50% inhibition at 10 mM
Nc1ncnc2c1ncn2[C@@H]1O[C@H](COP(=O)(O)OP(=O)(O)OP(=O)(O)O)[C@@H](O)[C@H]1O [ATP],Km,human sACt; [5],1.8 ± 0.28 mM
same,Km,sAC,~2 mM
same,Km,mouse sACfl; [5],2.2 ± 0.39 mM
same,Km,human sACfl; [5],2.2 ± 0.3 mM
same,Km,mouse sACt; [5],2.7 ± 0.25 mM
[Ca+2].[Cl-].[Cl-] [Ca^2+],EC50,human sACt; [6],1.7 ± 0.16 mM
same,EC50,mouse sACfl; [6],1.3 ± 0.15 mM
same,EC50,human sACfl; [6],1.7 ± 0.15 mM
same,EC50,mouse sACt; [6],1.4 ± 0.11 mM
Nc1ncnc2c1ncn2[C@@H]1O[C@H](CO)[C@@H](O)[C@H]1O [Adenosine],inhibition of cyclase activity at 10 mM,[1]; [3],>50% inhibition at 10 mM
same,inhibition of cyclase activity (in words),[1]; at 10 mM,some inhibition
Nc1ncnc2c1ncn2[C@@H]1O[C@H](COP(=O)(O)O)[C@@H](O)[C@H]1O [AMP],inhibition of cyclase activity at 10 mM,[1]; [3],No inhibition at 10 mM
same,inhibition of cyclase activity (in words),[1]; at concentrations up to 10 mM,no inhibition
Nc1nc2c(ncn2[C@@H]2O[C@H](COP(=O)(O)OP(=O)(O)O)[C@@H](O)[C@H]2O)c(=O)[nH]1 [GDP],inhibition of cyclase activity at 10 mM,[1]; [3],∼75% inhibition at 10 mM
same,inhibition of cyclase activity (in words),[1]; at 10 mM,some inhibition
O=c1[nH]cnc2c1ncn2[C@@H]1O[C@H](COP(=O)(O)OP(=O)(O)OP(=O)(O)O)[C@@H](O)[C@H]1O [ITP],inhibition of cyclase activity at 10 mM,[1]; [3],∼50% inhibition at 10 mM
O=P(O)(O)OP(=O)(O)O [Pyrophosphate],inhibition of cyclase activity at 1 mM,"[1]; 1 mM test substance, 2 mM ATP, 10 mM MgCl2, 10 mM CaCl2, 40 mM NaHCO3",~25%
same,inhibition of cyclase activity at 10 mM,[1]; [3],> 90%
same,inhibition of cyclase activity (in words),[1]; at 1 mM,slight inhibition
same,inhibition of cyclase activity (in words),[1]; at concentrations >10 mM,fully inhibited
Nc1ncnc2c1ncn2[C@@H]1O[C@H](COP(=O)(O)OP(=O)(O)O)[C@@H](O)[C@H]1O [ADP],inhibition of cyclase activity at 10 mM,[1]; [3],∼75% inhibition at 10 mM
same,inhibition of cyclase activity (in words),[1]; at 10 mM,some inhibition
O=c1ccn([C@@H]2O[C@H](COP(=O)(O)OP(=O)(O)OP(=O)(O)O)[C@@H](O)[C@H]2O)c(=O)[nH]1 [UTP],inhibition of cyclase activity at 10 mM,[1]; [3],∼50% inhibition at 10 mM
Nc1ccn([C@@H]2O[C@H](COP(=O)(O)OP(=O)(O)OP(=O)(O)O)[C@@H](O)[C@H]2O)c(=O)n1 [CTP],inhibition of cyclase activity at 10 mM,[1]; [3],>50% inhibition at 10 mM
Nc1nc2c(ncn2[C@@H]2O[C@H](COP(=O)(O)O)[C@@H](O)[C@H]2O)c(=O)[nH]1 [GMP],inhibition of cyclase activity at 10 mM,[1]; [3],No inhibition at 10 mM
same,inhibition of cyclase activity (in words),[1]; at concentrations up to 10 mM,no inhibition
Nc1nc(Cl)cc(-c2nn(C(F)F)cc2Cc2ccccc2OCCN2CCOC[C@H]2CO)n1 [TDI-11861],IC50,mouse sACfl; [7],22.4 ± 9.3 nM
same,IC50,[2],~21 nM
same,IC50,mouse sACt; [7],21.1 ± 4.5 nM
